Measured values reported in patent US8729120B2, “Adjunctive therapy for depression” (SK Biopharmaceuticals Co., Ltd., priority 2004, dated 2014).

Legend:
Format in all cases: in vivo
humans = assay: Placebo controlled study in humans, change in total MADRS (ITT, LOCF); conditions: for Change from Baseline in total MADRS, Mean (SD): ITT LOCF, depression rating scale
Mice [1] = assay: Tetrabenazine Reversal in Mice
Mice [2] = assay: Tail Suspension in Mice
Rats = assay: Forced-Swim Test (FST) in Rats
Mice [3] = assay: Reversal of Isolation-Induced Aggression in Mice
Mice [4] = assay: Forced-Swim Test (FST) in Mice
Mice [5] = assay: Reserpine Reversal in Mice

Structure (SMILES) | Change from Baseline in total MADRS, Mean (SD) (humans; 20 mg) | antidepressant effects (Mice [1]) | antidepressant effects (Mice [2]) | Change from Baseline in total MADRS, Mean (SD) (humans; 200 mg) | Change from Baseline in total MADRS, Mean (SD) (humans; 400 mg) | decrease in depression rating scores (MADRS) compared to placebo and paroxetine (humans; Table 1) | antidepressant effects in large placebo controlled study (humans; compared with Paroxetine) | antidepressant effects (Rats) | antidepressant effects (Mice [3]) | antidepressant effects (Mice [4]) | antidepressant effects (Mice [5])
Fc1ccc([C@@H]2CCNC[C@H]2COc2ccc3c(c2)OCO3)cc1 (relative stereo) [Paroxetine, trans-(−)-3-[(1,3-benzodioxol-5-yloxy)methyl]-4-(4-fluorophenyl)piperidine, reference compound] | −14.1 (10.71) |  |  |  |  |  |  |  |  |  | 
Cl.NC(=O)OC[C@H](N)Cc1ccccc1 [Test Compound, (R)-(beta-amino-benzenepropyl) carbamate monohydrochloric acid] |  | demonstrated antidepressant effects | demonstrated antidepressant effects | −12.1 (11.12) | −12.4 (11.12) | greater decrease in depression rating scores (MADRS) as compared to placebo but not as great as the active control, paroxetine | significant antidepressant effects | demonstrated antidepressant effects | demonstrated antidepressant effects | demonstrated antidepressant effects | demonstrated antidepressant effects
